Measured values reported in patent publication US10520507B2, “Methods for determining the risk of cardiovascular disease in a subject having a chronic viral infection through the measurement of lysophosphatidic acid” (CASE WESTERN RESERVE UNIVERSITY, priority 2014, dated 2019).

What was measured:
ENPP2 = ENPP2 (Mus musculus, UniProt Q9R1E6); set-up: species or system mice; details: in vivo, 30 mg/kg
[1] = test system: CD3+ CD4+ and CD3+ CD8+ T cells in PBMC; test: LPA induced T cell activation assay (HLADR and CD38 co-expression, flow cytometry); type: cell-based, human; details: 100 uM LPA
Experimental: FIGS. 4(A-B) are a series of charts showing LPA dependent T cell activation. 500,000 PBMC from 5 healthy controls and 3 untreated HIV infected subjects were cultured overnight in the absence or presence of PHA, followed by 3 days of culture in media or 100 uM LPA. Proportion of CD3^+ CD4^+ (Panel A) and CD3^+ CD8^+ (Panel B) T cells that express of HLA DR and CD38 are shown. Statistical analysis shown for all 8 subjects combined. Comparisons between presence and absence of LPA in PHA pre-treated healthy control CD4 and CD8 activation were also significant (P=0.04, P=0.04).
To determine whether LPA can directly contribute to immune activation we have conducted LPA induced T cell activation assays using HLADR and CD38 co-expression as a readout (FIG. 4).

monocytes = test: In vitro monocyte activation by LPA; type: cell-based

## O=C(CCN1CCN(C(=O)OCc2cc(Cl)cc(Cl)c2)CC1)c1ccc2[nH]c(=O)oc2c1 [PF-8380]
ENPP2
  Reversal of deleterious effect on T cell function and neoantigen response: at least partially reversed

## lysophosphatidic acid [LPA]
[1]; PBMC from healthy controls and untreated HIV infected subjects, 4 day culture, with or without PHA
  T cell activation (HLADR and CD38 co-expression): enhanced T cell activation
[1]; regardless of pre-activation, more robust with PHA pre-activation
  Activation in the CD4 compartment: Activation was observed
monocytes
  Monocyte activation: activated monocytes
